Among the data in patent US20250019385A1, “SPIROCYCLIC ANNULATED 2-AMINO-3-CYANO THIOPHENES AND DERIVATIVES FOR THE TREATMENT OF CANCER” (Boehringer Ingelheim International GmbH, priority 2023, published 2025) are IC50, fraction unbound and solubility values, retold here.

By IC50 is commonly meant the concentration needed to halve the response being measured. A high value points to lower potency. What is called solubility is the dissolved amount per volume that the medium holds.

In brackets after ≈: the same amount, converted by molar mass.

KRAS (G12D)::SOS1 protein-protein interaction, sequence (P01116 other isoform, or with tags, fused parts or gaps G12D): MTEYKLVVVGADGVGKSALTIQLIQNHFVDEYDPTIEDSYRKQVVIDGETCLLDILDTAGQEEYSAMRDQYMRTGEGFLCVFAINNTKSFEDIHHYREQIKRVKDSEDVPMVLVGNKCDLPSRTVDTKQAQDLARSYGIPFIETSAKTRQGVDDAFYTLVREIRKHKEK

The target of one data set is KRAS (G12D)::SOS1 protein-protein interaction (Homo sapiens (Human), UniProt P01116, G12D). Nature of the data set: KRAS::SOS1 AlphaScreen binding assay (KRAS G12D). Conditions: GDP. The procedure, abridged:
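AlphaScreen assay with KRAS G12D (1-169, 6His/avi-tagged, 10 nM), GST-SOS1 564-1049 (5 nM) and GDP (10 μM) in PBS, 0.1% BSA, 0.05% Tween 20; compound up to 100 μM top concentration, eleven fivefold dilutions in duplicate. After 30 min, glutathione acceptor and streptavidin donor beads (10 μg/mL each) were added and signal read after a further 60 min at room temperature in the dark; IC50 from 4-parameter logistic fit.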
Background: Bead proximity is the source of the signal in Alpha formats.
As to `CO[C@@H]1C[C@@H]([C@H](C)Oc2nc(-c3onc4c3CCC[C@@]43CCCc4sc(N)c(C#N)c43)nc3c2n(C)c(=O)n3[C@@H]2CCOC2)N(C)C1` [I-3], the IC50 came to 1 nM. That is a single-digit nanomolar value.

As to `C[C@H](Oc1nc(-c2noc3c2CCC[C@@]32CCCc3sc(N)c(C#N)c32)nc2c1n(C)c(=O)n2[C@@H]1CCOC1)[C@@H]1CCCN1C` [II-2], the IC50 came out at 1 nM.

Consider `C[C@H](Oc1nc(-c2onc3c2CCC[C@@]32CCCc3sc(N)c(C#N)c32)nc2c1n(C)c(=O)n2[C@H]1CC2CCC1O2)[C@@H]1CCCN1C` (stereo partly drawn) [I-17], for which the IC50 is 2 nM.

For `C[C@H](Oc1nc(-c2onc3c2CCC[C@@]32CCCc3sc(N)c(C#N)c32)nc2c1CN(C1COC1)C[C@]21CCOC1)[C@@H]1CCCN1C` [I-56], the IC50 is 1 nM.

On to `CO[C@H]1CCN(C)[C@@H]1[C@H](C)Oc1nc(-c2onc3c2CCC[C@@]32CCCc3sc(N)c(C#N)c32)nc2c1CN(C1COC1)C[C@]21CCOC1` [I-57], for which the IC50 is 1 nM.

Another data set concerns NCI-H358 cells. The data set is described as follows: NCI-H358 CTG proliferation assay (120 h) (NSCLC, G12C). The format is cell-based. Conditions: Homo sapiens. As for the experimental part: (§1) NCI-H358 cells (ATCC No. CRL-5807) are dispensed into black 384-well plates, flat and clear bottom (Greiner, PNr. 781091) at a density of 200 cells per well in 60 μl RPMI-1640 ATCC-Formulation (Gibco #A10491)+10% FCS (fetal calf serum). Cells are incubated overnight at 37° C. in a humidified tissue culture incubator at 5% CO2. Compounds (10 mM stock in DMSO) are added at logarithmic dose series using the ECHO acoustic liquid handler system (Beckman Coulter), normalizing for added DMSO and including DMSO controls. All compound treatments are performed in technical duplicates. For the TO time point measurement, untreated cells are analyzed at the time of compound addition. Plates are incubated for 120 h, and cell viability is measured using CellTiter-Glo luminescent cell viability reagent (Promega product code G7570). Viability (stated as percent of control) is defined as relative luminescence units RLU of each well divided by the RLU of cells in DMSO controls. IC50 values are determined from viability measurements by non-linear regression using a four-parameter model.
(§2) IC50 values of representative compounds according to the invention measured with these assays in the indicated cell lines are presented in Table 46.
For the compound `CO[C@@H]1C[C@@H]([C@H](C)Oc2nc(-c3onc4c3CCC[C@@]43CCCc4sc(N)c(C#N)c43)nc3c2n(C)c(=O)n3[C@@H]2CCOC2)N(C)C1` [I-3], the IC50 was 4 nM.

Regarding `C[C@H](Oc1nc(-c2noc3c2CCC[C@@]32CCCc3sc(N)c(C#N)c32)nc2c1n(C)c(=O)n2[C@@H]1CCOC1)[C@@H]1CCCN1C` [II-2], the IC50 was 4 nM.

`C[C@H](Oc1nc(-c2onc3c2CCC[C@@]32CCCc3sc(N)c(C#N)c32)nc2c1n(C)c(=O)n2[C@H]1CC2CCC1O2)[C@@H]1CCCN1C` (stereo partly drawn) [I-17] yielded an IC50 of 20 nM.

Take `C[C@H](Oc1nc(-c2onc3c2CCC[C@@]32CCCc3sc(N)c(C#N)c32)nc2c1CN(C1COC1)C[C@]21CCOC1)[C@@H]1CCCN1C` [I-56]: the IC50 was 6 nM.

The compound `CO[C@H]1CCN(C)[C@@H]1[C@H](C)Oc1nc(-c2onc3c2CCC[C@@]32CCCc3sc(N)c(C#N)c32)nc2c1CN(C1COC1)C[C@]21CCOC1` [I-57] registered an IC50 of 4 nM.

Another data set deals with LOVO cells. The data set is described as follows: LOVO CTG proliferation assay (120 h) (CRC, G13D). In kind it is cell-based. Conditions: Homo sapiens. On the procedure: as §1, with “LOVO” for “NCI-H358”, “CCL-229)” for “CRL-5807)”, “1000” for “200”, “DMEM (Sigma D6429)+10%” for “RPMI-1640 ATCC-Formulation (Gibco #A10491)+10%”, “serum, HyClone, SH30084.03).” for “serum).”
as §2
Compound `CO[C@@H]1C[C@@H]([C@H](C)Oc2nc(-c3onc4c3CCC[C@@]43CCCc4sc(N)c(C#N)c43)nc3c2n(C)c(=O)n3[C@@H]2CCOC2)N(C)C1` [I-3] came in with an IC50 of 15 nM.

The compound `C[C@H](Oc1nc(-c2noc3c2CCC[C@@]32CCCc3sc(N)c(C#N)c32)nc2c1n(C)c(=O)n2[C@@H]1CCOC1)[C@@H]1CCCN1C` [II-2] had an IC50 of 8 nM.

Regarding `C[C@H](Oc1nc(-c2onc3c2CCC[C@@]32CCCc3sc(N)c(C#N)c32)nc2c1n(C)c(=O)n2[C@H]1CC2CCC1O2)[C@@H]1CCCN1C` (stereo partly drawn) [I-17], the IC50 worked out at 14 nM.

With `C[C@H](Oc1nc(-c2onc3c2CCC[C@@]32CCCc3sc(N)c(C#N)c32)nc2c1CN(C1COC1)C[C@]21CCOC1)[C@@H]1CCCN1C` [I-56], inhibition was half-maximal at 43 nM (IC50).

Consider `CO[C@H]1CCN(C)[C@@H]1[C@H](C)Oc1nc(-c2onc3c2CCC[C@@]32CCCc3sc(N)c(C#N)c32)nc2c1CN(C1COC1)C[C@]21CCOC1` [I-57], for which 39 nM corresponded to half-maximal inhibition (IC50).

Tested on in a further data set: not listed separately
The data set is described as follows: Plasma protein binding assay (PPB), equilibrium dialysis. In kind it is in vitro ADME. Conditions: bovine, 10% FCS in PBS, read-out: PPB 10% FCS (% fu). On the procedure: Binding of test compounds to plasma was determined using equilibrium dialysis (ED) and quantitative mass spectrometry interfaced with liquid chromatography (LC-MS). In brief, ED was performed with dialysis devices consisting of two chambers separated by a semipermeable membrane with a molecular weight cut-off of 5-10 kg/mol. One chamber was filled with 10% FCS in PBS containing 1-10 μmol/L test compound and the other chamber was filled with phosphate-buffer saline (PBS) with or without dextran. The dialysis chamber was incubated for 3-5 hours at 37° C. After incubation, protein was precipitated from aliquots of each chamber and the concentration of test compound in the supernatant of the plasma-containing compartment (cserum) and of the buffer-containing compartment (cbuffer) was determined by LC-MS. The fraction of unbound test compound (not bound to plasma) (f) was calculated according to the following equation: […]
For `CO[C@@H]1C[C@@H]([C@H](C)Oc2nc(-c3onc4c3CCC[C@@]43CCCc4sc(N)c(C#N)c43)nc3c2n(C)c(=O)n3[C@@H]2CCOC2)N(C)C1` [I-3], the fraction unbound worked out at 0.11.

As to `C[C@H](Oc1nc(-c2noc3c2CCC[C@@]32CCCc3sc(N)c(C#N)c32)nc2c1n(C)c(=O)n2[C@@H]1CCOC1)[C@@H]1CCCN1C` [II-2], the fraction unbound turned out to be 0.19.

In the case of `C[C@H](Oc1nc(-c2onc3c2CCC[C@@]32CCCc3sc(N)c(C#N)c32)nc2c1n(C)c(=O)n2[C@H]1CC2CCC1O2)[C@@H]1CCCN1C` (stereo partly drawn) [I-17], the fraction unbound is 0.04.

For the compound `C[C@H](Oc1nc(-c2onc3c2CCC[C@@]32CCCc3sc(N)c(C#N)c32)nc2c1CN(C1COC1)C[C@]21CCOC1)[C@@H]1CCCN1C` [I-56], the fraction unbound turned out to be 0.3.

Turning to `CO[C@H]1CCN(C)[C@@H]1[C@H](C)Oc1nc(-c2onc3c2CCC[C@@]32CCCc3sc(N)c(C#N)c32)nc2c1CN(C1COC1)C[C@]21CCOC1` [I-57], the fraction unbound was 0.28.

Tested on in the next data set: not listed separately
Nature of the data set: Solubility measurement (DMSO solution precipitation method). In kind it is physicochemical. Conditions: aqueous buffer, kinetic from dmso stock, McIlvaine buffer pH 4.5, 24 h, read-out: solubility pH 4.5. The method, boiled down: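 A 10 mM DMSO stock was diluted to 250 μM final in McIlvaine buffer at pH 4.5 or 6.8, then shaken 24 h at ambient temperature. After filtering off precipitate, filtrate concentration was quantified by LC-UV against a fully dissolved reference in acetonitrile/water (1:1).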
As to `CO[C@@H]1C[C@@H]([C@H](C)Oc2nc(-c3onc4c3CCC[C@@]43CCCc4sc(N)c(C#N)c43)nc3c2n(C)c(=O)n3[C@@H]2CCOC2)N(C)C1` [I-3], the solubility at 24 h is over 157 µg/mL.

As to `C[C@H](Oc1nc(-c2noc3c2CCC[C@@]32CCCc3sc(N)c(C#N)c32)nc2c1n(C)c(=O)n2[C@@H]1CCOC1)[C@@H]1CCCN1C` [II-2], the solubility at 24 h was over 154 µg/mL.

Take `C[C@H](Oc1nc(-c2onc3c2CCC[C@@]32CCCc3sc(N)c(C#N)c32)nc2c1n(C)c(=O)n2[C@H]1CC2CCC1O2)[C@@H]1CCCN1C` (stereo partly drawn) [I-17]: the solubility at 24 h is over 155 µg/mL.

Turning to `C[C@H](Oc1nc(-c2onc3c2CCC[C@@]32CCCc3sc(N)c(C#N)c32)nc2c1CN(C1COC1)C[C@]21CCOC1)[C@@H]1CCCN1C` [I-56], the solubility at 24 h was over 157 µg/mL.

As to `CO[C@H]1CCN(C)[C@@H]1[C@H](C)Oc1nc(-c2onc3c2CCC[C@@]32CCCc3sc(N)c(C#N)c32)nc2c1CN(C1COC1)C[C@]21CCOC1` [I-57], the solubility at 24 h was over 167 µg/mL.

The data set is the same for the next values; noted with them: aqueous buffer, kinetic from dmso stock, McIlvaine buffer pH 6.8, 24 h, read-out: solubility pH 6.8.
Consider `CO[C@@H]1C[C@@H]([C@H](C)Oc2nc(-c3onc4c3CCC[C@@]43CCCc4sc(N)c(C#N)c43)nc3c2n(C)c(=O)n3[C@@H]2CCOC2)N(C)C1` [I-3], for which the solubility at 24 h turned out to be 77 µg/mL (≈ 117 µM).

For `C[C@H](Oc1nc(-c2noc3c2CCC[C@@]32CCCc3sc(N)c(C#N)c32)nc2c1n(C)c(=O)n2[C@@H]1CCOC1)[C@@H]1CCCN1C` [II-2], the solubility at 24 h was over 153 µg/mL.

`C[C@H](Oc1nc(-c2onc3c2CCC[C@@]32CCCc3sc(N)c(C#N)c32)nc2c1n(C)c(=O)n2[C@H]1CC2CCC1O2)[C@@H]1CCCN1C` (stereo partly drawn) [I-17]: the solubility at 24 h is over 148 µg/mL.

For `C[C@H](Oc1nc(-c2onc3c2CCC[C@@]32CCCc3sc(N)c(C#N)c32)nc2c1CN(C1COC1)C[C@]21CCOC1)[C@@H]1CCCN1C` [I-56], the solubility at 24 h was over 147 µg/mL.

Regarding `CO[C@H]1CCN(C)[C@@H]1[C@H](C)Oc1nc(-c2onc3c2CCC[C@@]32CCCc3sc(N)c(C#N)c32)nc2c1CN(C1COC1)C[C@]21CCOC1` [I-57], the solubility at 24 h is 72 µg/mL (≈ 105 µM).
